One may read the solubility as how much of the substance goes into solution per volume. Usually AUC(0-t) stands for the area under the concentration-time curve up to a stated or last time point. What is called Tmax is the time at which the peak concentration occurs. Usually Cmax stands for the peak of the concentration-time curve.

The text below walks through data of patent US20240317764A1, “SALTS AND SOLID FORMS OF A COMPOUND HAVING APJ RECEPTOR ACTIVITY” (Annapurna Bio, Inc., priority 2022, published 2024).

Series [1] can be described thus: Approximate solubility of Compound I free acid Form A in 14 solvents at RT. Format: physicochemical. On the procedure: Approximate solubility of starting material (Compound I free acid Form A) was determined in 14 solvents at RT. Approximately 2 mg of sample was added into a 3-mL glass vial. Solvents in Table 1-3 were then added stepwise into the vials until the solids were dissolved visually or a total volume of 2 mL was reached. Solubility results summarized in Table 1-1 were used to guide the solvent selection in screening experiment design.

The nature of series [2]: Hygroscopicity by DVS at 25° C. between 0% RH and 95% RH, XRPD after DVS. The format is physicochemical. Conditions: for Water uptake, comparison between forms (in words): DVS at 25° C., 0% RH to 95% RH; for Water uptake (25° C./80% RH): DVS; for Form change after DVS: XRPD after DVS test. On the procedure:
DVS was measured via a SMS (Surface Measurement Systems) DVS Intrinsic. The relative humidity at 25° C. were calibrated against deliquescence point of LiCl, Mg(NO3)2 and KCl.
In order to evaluate the hygroscopicity of Compound I free acid Form A and re-prepared salt forms, DVS isotherm plots were collected at 25° C. between 0% RH and 95% RH. XRPD characterization was performed for the samples after DVS test.

Series [3] in a line: Solid stability, 54 and 91 days (XRPD and HPLC purity). The format is physicochemical. Conditions: 25° C./60% RH or 40° C./75% RH.
From the text: (§1) The re-prepared choline salt Form A was used for evaluation, including solubility and solid stability. Free acid Form A was selected as comparison for pH solubility and solid stability evaluation.
The nature of series [4]: Dog pharmacokinetic study after oral administration, plasma by LC-MS/MS. Format: in vivo, male Beagle dogs. Conditions: for AUC(0-t) / Tmax / Cmax: male, Beagle, 30 mg/kg; for AUC(0-t) / Cmax: mean; for AUC(0-t): t = 24 h; for Tmax: median value or range; for Cmax: plasma Compound I. On the procedure: The objective of this study was to characterize the pharmacokinetics (PK) of Compound I in male Beagle dogs after oral (P0) administration. The P0 formulation was prepared in capsule or prepared in 0.50% or […] (methyl cellulose) in water at a concentration of 6 mg/mL for oral administration at 30 mg/kg.
LC-MS/MS for the PK studies was carried out using the following instruments/conditions.
Compound I Free acid Form A and Compound I choline salt Form A were formulated as an oral suspension at a target dose concentration of 6 mg/mL in 0.500 or 1% MC in water.
The dose was administered orally by gavage at a target dose volume of 5 mL/kg. Compound I choline salt Form A was also formulated as an oral capsule at a target dose concentration of 30 mg/kg. The formulation was prepared on the day of dosing and stored at room temperature prior to administration. The dose was administered orally by gavage to dogs. Following oral administration, blood samples were collected from […] at pre-dose, 0.083, 0.25, 0.5, 1, 2, 4, 8 and 24 h post dose.
The plasma concentration of Compound I was determined by liquid chromatography with mass spectrometric detection (LC-MS/MS).

The conditions of series [5]: pH buffers.
From the text: as §1
A short description of series [6]: physchem. Conditions: thermodynamic from solid.
Method: The solubility of starting material (Compound I choline salt Form A) was estimated at room temperature (RT, ˜26° C.). Specifically, approximate 2 mg solid was added into HPLC glass vials. Solvents in Table 5-2 were then added stepwise (50/50/200/700 μL) into the vials until the solids were dissolved or a total volume of 1.0 mL was reached.
Setting [7] is: compared to Compound I choline salt Form A.

≈ marks a conversion by molar mass, not a printed value. Entries after “also recorded” stand apart in the source; their conditions may differ. Where a name gives a salt, the structure may show the parent alone.

In the case of `CCOc1cccc(-c2nc3ncc(NS(C)(=O)=O)nc3n2-c2c(OC)cccc2OC)n1` [Compound I free acid Form A, N-(1-(2,6-dimethoxyphenyl)-2-(6-ethoxypyridin-2-yl)-1H-imidazo[4,5-b]pyrazin-6-yl)methanesulfonamide], the solubility in series [1] (organic solvent or mixture, thermodynamic from solid, 1,4-dioxane) is 2000 to 5000 µg/mL (≈ 4.25 to 10.6 mM); in series [1] (organic solvent or mixture, thermodynamic from solid, 2-MeTHF) it was below 1000 µg/mL; in series [1] (organic solvent or mixture, thermodynamic from solid, ACN) it was 2000 to 5000 µg/mL (≈ 4.25 to 10.6 mM); in series [1] (organic solvent or mixture, thermodynamic from solid, DCM) it was 5300 to 10500 µg/mL (≈ 11.3 to 22.3 mM); in series [1] (organic solvent or mixture, thermodynamic from solid, EtOAc) it was below 1000 µg/mL; in series [1] (organic solvent or mixture, thermodynamic from solid, EtOH), below 1100 µg/mL. Moreover, the solubility in series [1] (organic solvent or mixture, thermodynamic from solid, IPA) was below 900 µg/mL; in series [1] (organic solvent or mixture, thermodynamic from solid, MTBE) it was below 900 µg/mL; in series [1] (organic solvent or mixture, thermodynamic from solid, MeOH), 1000 to 2100 µg/mL (≈ 2.13 to 4.46 mM); in series [1] (organic solvent or mixture, thermodynamic from solid, THF), 9000 to 18000 µg/mL (≈ 19.1 to 38.3 mM); in series [1] (organic solvent or mixture, thermodynamic from solid, acetone) it was 2100 to 5200 µg/mL (≈ 4.46 to 11.1 mM); in series [1] (organic solvent or mixture, thermodynamic from solid, n-heptane) it was below 1300 µg/mL. For the same compound, the solubility is below 800 µg/mL in series [1] (organic solvent or mixture, thermodynamic from solid, toluene) and below 1200 µg/mL in series [1] (water, thermodynamic from solid, H2O). Besides, the “Water uptake, comparison between forms (in words)” value (“Water uptake … (in words)” below) in series [2] and in series [2] (listed as free acid Form A) was “lowest water uptake” throughout. The “Water uptake (25° C./80% RH)” value in series [2] worked out at 0.03%. In addition, the “Form change after DVS” value in series [2] is given as “No”. For the same compound, the “Solid stability: form change (XRPD) and HPLC purity” value in series [3] is reported as “no form change or obvious HPLC purity decrease”. This compound gave an AUC(0-t) in series [4] (plasma, suspension) of 13.8 µg·h/mL. The Tmax in series [4] (plasma, suspension) was found to be 4 h. For the same compound, the highest level in series [4] (suspension) (Cmax) was 983 ng/mL.
Take `CCOc1cccc(-c2nc3ncc(NS(C)(=O)=O)nc3n2-c2c(OC)cccc2OC)n1` [Compound I choline salt Form A, N-(1-(2,6-dimethoxyphenyl)-2-(6-ethoxypyridin-2-yl)-1H-imidazo[4,5-b]pyrazin-6-yl)methanesulfonamide choline salt Form A]: the “Water uptake … (in words)” value in series [2] is “No significant difference”. Further, in series [2], the “Water uptake (25° C./80% RH)” value is recorded as 3.85%. Also, the “Form change after DVS” value in series [2] is reported as “No”. Moreover, the “Solid stability: form change (XRPD) and HPLC purity” value in series [3] and in series [3] (listed as choline salt Form A) was “no form change or obvious HPLC purity decrease; also recorded: physically/chemically stable” throughout. For the same compound, the Cmax was 11900 ng/mL in series [4] (plasma, po, capsule) and 73800 ng/mL in series [4] (plasma, po, suspension). Further, the AUC(0-t) in series [4] (plasma, po, capsule) worked out at 145 µg·h/mL; in series [4] (plasma, po, suspension) it was 1120 µg·h/mL. Besides, the Tmax in series [4] (plasma, po, suspension) lay within 2 to 4 h. Also, the “Pharmacokinetic profile (in words)” value in series [4] (suspension and capsule) is “excellent pharmacokinetic profiles”. For the same compound, the “Mean AUClast and Cmax compared with free acid Form A suspension” value in series [4] (suspension or capsule) is on record as “greater than that of Compound I free acid Form A”. Further, the “pH solubility compared with free acid Form A” value in series [5] was “higher solubility than free acid Form A”. In addition, the “Solubility in certain non-polar solvents (in words)” value (IPA, acetone, MEK, MIBK, ethyl acetate, isopropyl acetate, MTBE, THF, 2-MeTHF, CHCl3, n-heptane, toluene, DCM, 1,4-dioxane) is “less soluble”. For the same compound, the “Solubility in polar solvents (in words)” value (methanol, DMSO, and water) was “good solubility”. The solubility in series [6] (1,4-Dioxane, 26 °C, organic solvent or mixture) is below 2100 µg/mL; in series [6] (2-Butanol, 26 °C, organic solvent or mixture) it was below 1800 µg/mL; in series [6] (2-MeTHF, 26 °C, organic solvent or mixture), below 1800 µg/mL; in series [6] (ACN, 26 °C, organic solvent or mixture), 7100 to 21400 µg/mL; in series [6] (ACN/IPAc (1:1), 26 °C, organic solvent or mixture), below 2100 µg/mL; in series [6] (ACN/IPAc (9:1), 26 °C, organic solvent or mixture), 2200 to 7300 µg/mL. In addition, the solubility in series [6] (ACN/Toluene (1:1), 26 °C, organic solvent or mixture) is 2100 to 7000 µg/mL; in series [6] (ACN/Toluene (9:1), 26 °C, organic solvent or mixture) it was 6300 to 18800 µg/mL; in series [6] (Acetone/H2O (19:1), 26 °C, organic solvent or mixture), 7200 to 21600 µg/mL; in series [6] (CHCl3, 26 °C, organic solvent or mixture), below 2100 µg/mL; in series [6] (CPME, 26 °C, organic solvent or mixture), below 1800 µg/mL; in series [6] (DCM, 26 °C, organic solvent or mixture), below 2100 µg/mL. For the same compound, the solubility in series [6] (DMF, 26 °C, organic solvent or mixture) was 20200 to 40400 µg/mL; in series [6] (DMSO, 26 °C, organic solvent or mixture), 18800 to 37600 µg/mL; in series [6] (EtOAc, 26 °C, organic solvent or mixture), below 1700 µg/mL; in series [6] (EtOH, 26 °C, organic solvent or mixture) it was 6800 to 20500 µg/mL; in series [6] (EtOH/H2O (19:1), 26 °C, organic solvent or mixture) it was 6600 to 19900 µg/mL; in series [6] (IPA/ACN (1:1), 26 °C, organic solvent or mixture), 7000 to 21000 µg/mL. Besides, the solubility in series [6] (IPAc, 26 °C, organic solvent or mixture) was below 2000 µg/mL; in series [6] (MEK, 26 °C, organic solvent or mixture) it was below 2000 µg/mL; in series [6] (MIBK, 26 °C, organic solvent or mixture), below 2300 µg/mL; in series [6] (MTBE, 26 °C, organic solvent or mixture), below 2100 µg/mL; in series [6] (MeOH/DCM (1:1), 26 °C, organic solvent or mixture) it was above 39600 µg/mL; in series [6] (MeOH/DCM (1:9), 26 °C, organic solvent or mixture), above 40800 µg/mL. In addition, the solubility in series [6] (MeOH/DCM (1:19), 26 °C, organic solvent or mixture) is above 38600 µg/mL; in series [6] (THF, 26 °C, organic solvent or mixture) it was below 1800 µg/mL; in series [6] (THF/H2O (19:1), 26 °C, organic solvent or mixture) it was above 40400 µg/mL; in series [6] (acetone, 26 °C, organic solvent or mixture), below 2400 µg/mL; in series [6] (isopropanol (IPA), 26 °C, organic solvent or mixture), below 2200 µg/mL; in series [6] (methanol, 26 °C, organic solvent or mixture) it was above 45200 µg/mL. For the same compound, the solubility was below 2100 µg/mL in series [6] (n-heptane, 26 °C, organic solvent or mixture); below 2200 µg/mL in series [6] (toluene, 26 °C, organic solvent or mixture); above 43000 µg/mL in series [6] (water, 26 °C).
Take `CCOc1cccc(-c2nc3ncc([N-]S(C)(=O)=O)nc3n2-c2c(OC)cccc2OC)n1.[K+]` [Compound I potassium salt Form A, N-(1-(2,6-dimethoxyphenyl)-2-(6-ethoxypyridin-2-yl)-1H-imidazo[4,5-b]pyrazin-6-yl)methanesulfonamide potassium salt Form A]: in series [2], the “Water uptake … (in words)” value is “No significant difference”; the “Water uptake (25° C./80% RH)” value stood at 3.71%; the “Form change after DVS” value is recorded as “No”.
Consider `CCOc1cccc(-c2nc3ncc([N-]S(C)(=O)=O)nc3n2-c2c(OC)cccc2OC)n1.[Na+]` [Compound I sodium salt Form A, N-(1-(2,6-dimethoxyphenyl)-2-(6-ethoxypyridin-2-yl)-1H-imidazo[4,5-b]pyrazin-6-yl)methanesulfonamide sodium salt Form A], for which the “Water uptake (25° C./80% RH)” value in series [2] worked out at 1.13%. The “Form change after DVS” value in series [2] (listed as Compound I Na salt Form A) is “converted to a new form after DVS test; also recorded: form change was observed after DVS”. For the same compound, the “Form change after DVS” value in series [2] (listed as Na salt Form A) is on record as “Yes*”. In addition, in series [2] (setting [7]), the “Hygroscopicity (in words)” value was “exhibited hygroscopicity” and the “Stability after exposure to high humidity (in words)” value is on record as “less stable after exposed to high humidity”.
